From patent US9212396B2, “Materials and methods useful for affecting tumor cell growth, migration and invasion” (The Ohio State University, priority 2009, dated 2015)

What was measured:
Type in all cases: cell-based, human
[1] = tested on: Calu-1 cells; assay: Caspase 3/7 assay of TRAIL-induced apoptosis in Calu-1 cells; conditions: Calu-1 cells transfected 72 h, control 2′-O-me-scrambled miR
Method: (§1) Cells were grown in six well plate (1.7×10^6 per well) for 24 h and transfected 100 nmoli/L/well of 2′-O-me-oligoribonucleotides using lipofectamine 2000. RNA and proteins were extracted after 72 h from the transfection.
(§2) Cells were plated in 96-well plates in triplicate and incubated at 37° C. in a 5% CO2 incubator. Super-Killer TRAIL (Alexis Biochemicals) was used for 24-48 h at 400 ng ml-1. Cell viability was examined with 3-(4,5-dimethylthiazol-2-yl)-2,5-dipheniltetrazolium bromide (MTT)-Cell Titer 96 AQueous One Solution Cell Proliferation Assay (Promega), according to the manufacturer's protocol. Metabolically active cells were detected by adding 20 μl of MTT to each well. After 1 h of incubation, the plates were analyzed in a Multilabel Counter (Bio-Rad Laboratories). Apoptosis was assessed using Annexin V-FITC apoptosis detection kits followed by flowcytometric analysis and caspase 3/7 activity. […] Statistical analysis was done using two sample t test, assuming equal variance, and P value was calculated based on two-tailed test. For detection of caspase 3/7 activity, cells were cultured in 96-well plates and treated with TRAIL 400 ng/ml and analyzed using Caspase-Glo 3/7 Assay kit (Promega) according to the manufacturer's instructions. Continuous variables are expressed as mean values±standard deviation (s.d.).

[2] = tested on: Snu-387 cells; assay: Caspase 3/7 assay of TRAIL-induced apoptosis in Snu-387 cells; conditions: Snu-387 cells transfected 72 h, control 2′-O-me-scrambled miR
Method: as §1, §2

[3] = tested on: Calu-1 cells; assay: Migration and invasion assay in Calu-1 cells; conditions: Calu-1 cells after transfection
Method: (§3) Transwell insert chambers with […] porous membrane (Greiner bio-one) were used for the assay. Cells were washed three times with PBS and added to the top chamber in serum-free media. The bottom chamber was filled with media containing 10% FBS. Cells were incubated for 24 h at 37° C. in a 5% CO2 humidified incubator. To quantify migrating cells, cells on the top chamber were removed by using a cotton-tipped swab, and the migrated cells were fixed in PBS, 25% glutaraldehyde and stained with Crystal Violet stain, visualized under a phase-contrast microscope, and photographed. Cristal violet-stained cells were moreover solubilized in acetic acid and methanol (1:1) and absorbance was measured at 595 nm. The results are means of three independent experiments±S.D.
(§4) H460 and SK-Hep-1 cells were placed into the top chamber of a BD Falcon HTS FluoroBlok insert with a membrane containing […] pores (BD Biosciences) in […] of serum-free Dulbecco's modified Eagle medium in triplicate. […] The fluorescence of migrated cells was quantified using a fluorometer at excitation wavelengths of 485 nm and emission wavelengths of 530 nm and expressed as arbitrary fluorescence units. Data are expressed as mean±standard error of 4 separate determinations.

[4] = tested on: AKT pathway; assay: Western blots of AKT pathway in Snu-387 cells; conditions: Snu-387 cells after knockdown
Method: (§5) Total proteins from NSCLC and HCC cells were extracted with radioimmuno-precipitation assay (RIPA) buffer ([…] NaCl, […] Tris-HCl, pH 7.5, 1% Triton, 0.1% SDS, 0.1% sodium deoxycholate and 1% Nonidet P40). Sample extract (50 μg) was resolved on 7.5-12% SDS-polyacrylamide gels (PAGE) using a mini-gel apparatus (Bio-Rad Laboratories) and transferred to Hybond-C extra nitrocellulose. Membranes were blocked for 1 h with 5% nonfat dry milk in Tris-buffered saline containing 0.05% Tween 20, incubated overnight with primary antibody, washed and incubated with secondary antibody, and visualized by chemiluminescence.
(§6) The following primary antibodies were used: anti-PTEN, anti-c-Jun, anti-p-c-Jun, anti-Fos, anti-p-JNK, anti-MMP3, anti-Mc1-1 (Santa Cruz), anti-TIMP3 (Millipore) anti-PI3K (BD Biosciences), anti-ERKs, anti-phospho ERKs, anti-AKT, anti-p-AKT, anti-GSK3b, anti-p-GSK3b (Ser9), anti-PAK1 anti-caspase-8,-3 and -9, anti-PARP, anti-cytochrome c (Cell signaling) and anti-MMP9, anti-FADD (Abcam), anti-1-actin antibody (Sigma). A secondary anti-rabbit or anti-mouse immunoglobulin G (IgG) antibody peroxidase conjugate (Chemicon) was used.
(§7) 2′-O-me-GFP miR (5′-[…] [SEQ ID No:17]) was used as control. Cells were grown in six well plate (1.7×10^6 per well) for 24 h and transfected 100 nmoli/L/well of 2′-O-me-oligoribonucleotides using lipofectamine 2000. […]

[5] = tested on: Snu-387 cells; assay: Migration and invasion assay in Snu-387 cells; conditions: Snu-387 cells after transfection
Method: as §3, §4

[6] = tested on: PTEN and TIMP3; assay: Western blot of PTEN and TIMP3 in Snu-387 cells; conditions: Snu-387 cells after transfection
Method: as §5, §6, §7

[7] = tested on: PTEN and TIMP3; assay: Western blot of PTEN and TIMP3 in Calu-1 cells; conditions: Calu-1 cells after transfection
Method: as §5, §6, §7

[8] = tested on: PTEN and TIMP3; assay: Western blot of PTEN and TIMP3 in H460 cells; conditions: 72 h, compared to scrambled pre-miR
Method: as §5, §6

[9] = tested on: PTEN and TIMP3 mRNA; assay: qRT-PCR of PTEN and TIMP3 mRNA in H460 cells
[10] = tested on: AKT/ERKs pathways and Metallopeptidases; assay: Western blots of AKT/ERKs pathways and metallopeptidases in H460 cells; conditions: H460 cells after forced expression
Method: as §5, §6

[11] = tested on: H460 cells; assay: Migration and invasion assay in H460 cells; conditions: H460 cells after transfection
Method: as §3, §4

[12] = tested on: H460 cells; assay: Flow cytometric cell cycle analysis of H460 cells; conditions: H460 transfected cells, 72 h
[13] = tested on: PTEN and TIMP3 3′ UTRs; assay: 3′UTR luciferase reporter assay in MEG01 cells; conditions: wild type 3′ UTRs
Text: The 3′ UTR of the human PTEN and TIMP3 genes were PCR amplified using the following primers: PTEN Fw 5′-TCTAGAGACTCTGATCCAGAGAATGAACC-3′ [SEQ ID No:1] and PTEN Rw 5′-TCTAGAGTTGCCACAAGTGCAAAGGGGTAGGATGTG-3′ [SEQ ID No:2]; TIMP3 Fw 5′-TCTAGACTGGGCAAAGAAGGGTCTTTCGCAAAGC-3′ [SEQ ID No:3] and TIMP3 Rw 5′ TCTAGATTCCAATAGGGAGGAGGCTGGAGGAGTCTC-3′ [SEQ ID No:4] and cloned downstream of the […] luciferase stop codon in pGL3 control vector (Promega), giving rise to the p3′UTR-PTEN and p3′UTR-TIMP3 plasmids.
These constructs were used to generate, by inverse PCR, the p3′-UTRmut-PTEN plasmid-primers: Fw: 5′-GTTGAAAAAAGGTTGGGGGCGGGTGTCATGTATATAC-3 [SEQ ID No:5]; Rw: 5′-GTATATACATGACACCCGCCCCCAACCTTTTTTCAAC-3′[SEQ ID No:6]; p3′-UTRmut-TIMP3 plasmid-primers: Fw: 5′-GTATAATTTAAAATCATTGGGCGGCGGGAGACACTTCTGTATTTC-3′ [SEQ ID No:7]; Rw: 5′-GAAATACAGAAGTGTCTCCCGCCGCCCAATGATTTTAAATTATAC-3′ [SEQ ID No:8].
MeG01 cells were cotransfected with 1 μg of p3′UTR-PTEN or p3′UTR-TIMP3 and with p3′UTRmut-PTEN or p3′ UTR TIMP3 plasmids and 1 μg of a Renilla luciferase expression construct pRL-TK (Promega) by using Lipofectamine 2000 (Invitrogen). Cells were harvested 24 h post-transfection and assayed with Dual Luciferase Assay (Promega) according to the manufacturer's instructions. […]

[14] = tested on: Sk-Hep1 cells; assay: Migration and invasion assay in Sk-Hep1 cells; conditions: Sk-Hep1 cells after transfection
Method: as §3, §4

[15] = tested on: PTEN and TIMP3; assay: Western blot of PTEN and TIMP3 in Sk-Hep1 cells; conditions: Sk-Hep1 cells upon over-expression
Method: as §5, §6

[16] = tested on: c-Jun, PTEN and TIMP3; assay: Western blot in Huh7 cells after anisomycin
Method: as §5, §6

[17] = tested on: miR-221 and miR-222; assay: qRT-PCR of miR-221 and miR-222 in Huh7 cells after anisomycin; design: dose or concentration left out as unconfirmed
Method: Real-time PCR was performed using a standard TaqMan PCR Kit protocol on an Applied Biosystems 7900HT Sequence Detection System (Applied Biosystems). The 10 μl PCR reaction included 0.67 μl RT product, 1 μl TaqMan Universal PCR Master Mix (Applied Biosystems), […]. The reactions were incubated in a 96-well plate at 95° C. for […], followed by 40 cycles of 95° C. for 15 s and 60° C. for 1 min. All reactions were run in triplicate. The threshold cycle (CT) is defined as the fractional cycle number at which the fluorescence passes the fixed threshold. The comparative CT method for relative quantization of gene expression (Applied Biosystems) was used to determine miRNA expression levels. The y axis represents the 2(-CT), or the relative expression of the different miRs. miRs expression was calculated relative to U44 and U48 rRNA and multiplied by 104. Experiments were carried out in triplicate for each data point, and data analysis was performed by using software (Bio-Rad).

Compound | sensitivity to TRAIL-induced apoptosis (caspase 3/7 assay) [1] | sensitivity to TRAIL-induced apoptosis (caspase 3/7 assay) [2] | cell migration and invasion [3] | AKT pathway (western blots) [4] | cell migration and invasion [5] | PTEN and TIMP3 protein level (western blot) [6] | PTEN and TIMP3 protein levels (western blot) [7] | further results
5′-gaaacccagcagacaauguagcu (antisense GAAACCCAGCAGACAAUGUAGCU; all 2'-O-methyl, backbone not given here) [2′-O-me-anti-miR-221] | considerably sensitized these cells to TRAIL-induced apoptosis | considerably sensitized these cells to TRAIL-induced apoptosis | a decrease in cell migration and invasion | inhibition of the AKT pathway | a decrease in cell migration and invasion | increased the protein level of PTEN and TIMP3 | increased the protein levels of PTEN and TIMP3 | 
miR-222: microRNA transfected (100 nM) for enforced expression (GAGACCCAGTAGCCAGATGTAGCT; listed as DNA, chemistry not given here) |  |  |  |  |  |  |  | endogenous levels of PTEN and TIMP3 (western blot) [8]: significantly reduced the endogenous levels of PTEN and TIMP3; down-regulation of TIMP3 mRNA (qRT-PCR) ([9]; H460 cells after enforced expression): not observed; PTEN mRNA levels (qRT-PCR) ([9]; H460 cells after forced expression): strongly reduced; activation of AKT/ERKs pathways and metallopeptidases (western blots) [10]: induces the activation of the AKT/ERKs pathways and Metallopeptidases; migratory and invasive capabilities [11]: significant increase; cell cycle distribution [12]: a decrease of G1 and a corresponding increase of the S and G2-M phases; relative luciferase activity of PTEN and TIMP3 3′ UTR reporter constructs [13]: significantly affected luciferase expression; migratory and invasive capabilities [14]: significant increase; PTEN and TIMP3 proteins (western blot) [15]: reduced
5′-gagacccagtagccagatgtagct (antisense GAGACCCAGTAGCCAGATGTAGCT; all 2'-O-methyl, backbone and T or U not given here) [2′-O-me-anti-miR-222] | considerably sensitized these cells to TRAIL-induced apoptosis | considerably sensitized these cells to TRAIL-induced apoptosis | a decrease in cell migration and invasion | inhibition of the AKT pathway | a decrease in cell migration and invasion | increased the protein level of PTEN and TIMP3 | increased the protein levels of PTEN and TIMP3 | 
COc1ccc(C[C@H]2NC[C@H](O)[C@H]2OC(C)=O)cc1 [anisomycin] |  |  |  |  |  |  |  | PTEN and TIMP3 expression levels ([16]; Huh7 cells after anisomycin): decreased drastically; c-Jun activation ([16]; Huh7 cells, total lysate, western blot): induced c-Jun activation; miR-221 expression increase (qRT-PCR) [17]: 80%; miR-222 expression increase (qRT-PCR) [17]: 40%
